From ChEMBL document CHEMBL1124701, “Some benzyl-substituted imidazoles, triazoles, tetrazoles, pyridinethiones, and structural relatives as multisubstrate inhibitors of dopamine beta-hydroxylase. 4. Structure-activity relationships at the copper binding site” (J Med Chem, 1990)

Target: T1, Dopamine beta-hydroxylase (Bos taurus) (UniProt P15101)
T1 sequence (whole entry): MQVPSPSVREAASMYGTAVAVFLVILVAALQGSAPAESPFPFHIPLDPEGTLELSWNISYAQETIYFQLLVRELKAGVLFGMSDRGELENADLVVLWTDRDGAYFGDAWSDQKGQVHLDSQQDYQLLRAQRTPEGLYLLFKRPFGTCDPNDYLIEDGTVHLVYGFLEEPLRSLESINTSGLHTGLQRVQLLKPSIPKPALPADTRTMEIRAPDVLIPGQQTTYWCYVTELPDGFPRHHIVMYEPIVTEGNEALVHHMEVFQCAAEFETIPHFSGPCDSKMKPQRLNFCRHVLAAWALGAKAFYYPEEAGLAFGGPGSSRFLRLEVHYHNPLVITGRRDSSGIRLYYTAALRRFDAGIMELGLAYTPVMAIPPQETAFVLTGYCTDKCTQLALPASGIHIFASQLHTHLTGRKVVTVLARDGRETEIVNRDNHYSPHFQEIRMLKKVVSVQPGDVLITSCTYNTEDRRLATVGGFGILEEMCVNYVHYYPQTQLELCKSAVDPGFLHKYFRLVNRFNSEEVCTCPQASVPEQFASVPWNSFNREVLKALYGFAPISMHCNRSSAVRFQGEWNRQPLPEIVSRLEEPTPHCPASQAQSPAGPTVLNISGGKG
Test: Percent inhibition against bovine dopamine beta-hydroxylase (DBH) at 10e-5 M concentration

Question: How did the inhibition turn out when `S=c1ncccn1Cc1ccccc1` was run?
Answer: 5%

Question: Which inhibition does the source give for `Sc1ncccc1Cc1ccccc1` here?
Answer: 26%

Question: For `Fc1cccc(Cc2cccnc2S)c1`, which inhibition is on record?
Answer: 34%

Question: With `S=C1NCCN1Cc1ccccc1` as the molecule, how does the inhibition read?
Answer: 5%

Question: Which inhibition does the source give for `Sc1cnnn1Cc1ccccc1` here?
Answer: 0%

Question: `Fc1cccc(Cn2cccnc2=S)c1` was tested. Which inhibition did it give?
Answer: 15%

Target: T2, Dopamine beta-hydroxylase (Bos taurus, UniProt P15101)
T2 sequence (P15101 whole entry): T1 sequence (whole entry)
Test: Inhibitory activity was determined against bovine dopamine beta-hydroxylase (DBH)

Question: Which IC50 does the source give for `CSc1nccn1CCCc1ccc(O)cc1` here?
Answer: 79 µM

Question: For `O=C(O)c1nccn1Cc1ccc(O)cc1`, which IC50 is on record?
Answer: 112 µM

Question: `NCc1nccn1Cc1ccc(O)cc1` was tested. Which IC50 did it give?
Answer: 165 µM

Question: `Fc1cc(F)cc(Cn2cccnc2=S)c1` was tested. Which IC50 did it give?
Answer: 2.8 µM

Question: `Fc1cc(F)cc(Cc2cccnc2S)c1` was tested. Which IC50 did it give?
Answer: 13.4 µM

Question: With `Fc1cc(F)cc(CN2CCN=C2S)c1` as the molecule, how does the IC50 read?
Answer: 1.4 µM

Question: Which IC50 does the source give for `Fc1cc(F)cc(Cn2nnnc2S)c1` here?
Answer: 1.54 µM

Question: `Fc1cccc(Cn2cnnc2S)c1` was tested. Which IC50 did it give?
Answer: 1.9 µM

Question: With `Sc1nnnn1Cc1ccccc1` as the molecule, how does the IC50 read?
Answer: 16 µM

Question: Which IC50 does the source give for `Fc1cc(F)cc(Cn2nc[nH]c2=S)c1` here?
Answer: 6.2 µM

Question: With `O=C(O)c1nccn1Cc1ccccc1` as the molecule, how does the IC50 read?
Answer: 57 µM

Question: Which IC50 does the source give for `Sc1ncnn1Cc1ccccc1` here?
Answer: 75 µM

Question: For `Fc1cccc(Cn2ncnc2S)c1`, which IC50 is on record?
Answer: 15 µM

Question: `Fc1cccc(CN2CCNC2=S)c1` was tested. Which IC50 did it give?
Answer: 3.7 µM

Question: How did the IC50 turn out when `Oc1c(F)cc(Cn2cnnc2S)cc1F` was run?
Answer: 0.035 µM

Target: T1, Dopamine beta-hydroxylase (Bos taurus)
Test: Percent inhibition against bovine dopamine beta-hydroxylase (DBH) at 10e-4 M concentration

Question: How did the inhibition turn out when `O=C(O)Cc1nccn1Cc1ccc(O)cc1` was run?
Answer: 0%

Question: With `OCc1nccn1Cc1ccccc1` as the molecule, how does the inhibition read?
Answer: 0%

Question: With `O=C(O)Cc1nccn1Cc1ccccc1` as the molecule, how does the inhibition read?
Answer: 0%

Question: With `Nc1nccn1Cc1ccc(O)cc1` as the molecule, how does the inhibition read?
Answer: 4%

Question: `Oc1ccc(Cn2ccnc2)cc1` was tested. Which inhibition did it give?
Answer: 17%

Question: With `O/N=C/c1nccn1Cc1ccccc1` as the molecule, how does the inhibition read?
Answer: 10%
